Key:
hCRTH2 receptor [1] = biological target: T1, hCRTH2 receptor (Homo sapiens, UniProt Q9Y5Y4); assay: CRTH2 membranes radioligand binding assay ({3H}-PGD2); settings: membranes of HEK 293 cells expressing recombinant hCRTH2; {3H}-PGD2 2.5 nM; 90 min
T1 construct: expressed in transfected cells
T1 sequence (Q9Y5Y4 1-395): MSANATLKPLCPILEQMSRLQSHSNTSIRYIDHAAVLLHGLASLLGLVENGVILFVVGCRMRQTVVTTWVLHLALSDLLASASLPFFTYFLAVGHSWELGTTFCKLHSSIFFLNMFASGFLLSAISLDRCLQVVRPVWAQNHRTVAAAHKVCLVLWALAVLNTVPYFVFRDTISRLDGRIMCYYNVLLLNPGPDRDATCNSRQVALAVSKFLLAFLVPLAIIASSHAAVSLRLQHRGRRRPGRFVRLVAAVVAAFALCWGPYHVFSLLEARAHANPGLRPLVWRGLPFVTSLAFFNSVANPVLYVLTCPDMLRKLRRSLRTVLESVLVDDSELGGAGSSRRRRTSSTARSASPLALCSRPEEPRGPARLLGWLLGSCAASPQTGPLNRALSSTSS
Protocol: Biological Assay: Preparation of CRTH2 Membranes and Radioligand Binding Assay:
Preparation of the membranes and radioligand binding assays are performed according to known procedures, e.g. Sawyer N. et al. (Br. J. Pharmacol., 2002, 137, 1163-1172). A clonal HEK 293 cell line, expressing high level of recombinant hCRTH2 receptor, is selected for the preparation of membranes. Cells are detached from culture plates in 5 ml buffer A per plate (5 mM Tris, 1 mM MgCl2x6 H2O, 0.1 mM PMSF, 0.1 mM phenanthroline) using a police rubber and transferred into centrifugation tubes and frozen at −80° C. After thawing, the cells are centrifuged at 500 g for 5 min and then resuspended in buffer A. Cells are then fragmented by homogeinization with a Polytron homogenizer for 30 s. The membrane fragments are centrifuged at 3000 g for 40 min and resuspended in membranes in buffer B (50 mM Tris, 25 mM MgCl2, 250 mM saccharose, pH 7.4) and aliquots are stored frozen.
Binding assay is performed in a total volume of 250 μl. In each well, 75 μl buffer C (50 mM Tris, 100 mM NaCl, 1 mM EDTA, 0.1% B SA (protease free), 0.01% NaN3, pH 7.4) is mixed with 50 μl {^3H}-PGD2 (at 2.5 nM (220.000 dpm per well) from Amersham, TRK734), 100 μl CRTH2 membranes to give 80 μg per well and 25 μl of test compound in buffer C containing 1% DMSO. For unspecific binding, PGD2 is added to the reaction mixture at 1 μM final concentration. This binding assay mix is incubated at it for 90 min and then filtered through a GF/C filter plate. The filter is washed three times with ice cold binding buffer. Then, 40 μl per well Microscint-40 (Packard) are added and the bound radioactivity is quantified by means of Topcourt (Packard).

hCRTH2 receptor [2] = biological target: T1, hCRTH2 receptor; assay: Intracellular calcium mobilization assay (FLIPR), antagonism of prostaglandin D2; assay type: cell-based; settings: HEK-293 cells stably expressing hCRTH2; agonist prostaglandin D2 10 nM final; read-out: FLIPR CRTH2 IC50
Protocol: Intracellular Calcium Mobilization Assay (FLIPR):
Cells (HEK-293), stably expressing the hCRTH2 receptor under the control of the cytomegalovirus promotor from a single insertion of the expression vector pcDNA5 (Invitrogen), are grown to confluency in DMEM (low glucose, Gibco) medium supplemented with 10% fetal calf serum (both Bioconcept, Switzerland) under standard mammalian cell culture conditions (37° C. in a humidified atmosphere of 5% CO2). Cells are detached from culture dishes using a dissociation buffer (0.02% EDTA in PBS, Gibco) for 1 min, and collected by centrifugation at 200 g at rt for 5 min in assay buffer [equal parts of Hank's BSS (HBSS, Bioconcept) and DMEM (low glucose, without phenol red, Gibco)]. After incubation for 45 min (37° C. and 5% CO2) in the presence of 1 μM Fluo-4 and 0.04% Pluronic F-127 (both Molecular Probes), 20 mM HEPES (Gibco) in assay buffer, the cells are washed with and resuspended in assay buffer, then seeded onto 3 84-welt FLIPR assay plates (Greiner) at 50,000 cells in 66 μl per well, and sedimented by centrifugation.
Stock solutions of test compounds are made up at a concentration of 10 mM in DMSO, and serially diluted in assay buffer to concentrations required for inhibition dose response curves. Prostaglandin D2 (Biomol, Plymouth Meeting, Pa.) is used as an agonist.
A FLIPR384 instrument (Molecular Devices) is operated according to the manufacturer's standard instructions, adding 4 μl of test compound dissolved at 10 mM in DMSO and diluted prior to the experiment in assay buffer to obtain the desired final concentration. 10 μl of 80 nM prostaglandin D2 (Biomol, Plymouth Meeting, Pa.) in assay buffer, supplemented with 0.8% bovine serum albumin (fatty acid content<0.02%, Sigma), is then added to obtain a final concentration of 10 nM and 0.1%, respectively. Changes in fluorescence are monitored before and after the addition of test compounds at λex=488 nm and λem=540 nm. Emission peak values above base level after prostaglandin D2 addition are exported after base line subtraction. Values are normalized to high-level control (no test compound added) after subtraction of base line value (no prostaglandin D2 added). The program XLlfit 3.0 (IDBS) is used to fit the data to a single site dose response curve of the equation (A+((B−A)/(1+((C/x)^D)))) and to calculate the IC50 values.

| Compound | IC50 (hCRTH2 receptor [1]) [nM] | IC50 (hCRTH2 receptor [2]) [nM] |
| --- | --- | --- |
| CCc1ccc(-c2ccc(C(=O)N3CCc4c(c5ccccc5n4CC(=O)O)C3)cc2)cc1 [[2-(4′-ethyl-biphenyl-4-carbonyl)-1,2,3,4-tetrahydro-pyrido[4,3-b]indol-5-yl]-acetic acid] | 7 |  |
| O=C(O)Cn1c2c(c3cc(Cl)ccc31)CN(C(=O)c1cccs1)CC2 [[8-chloro-2-(thiophene-2-carbonyl)-1,2,3,4-tetrahydro-pyrido[4,3-b]indol-5-yl]-acetic acid] |  | 50 |
| COc1cc(C(=O)N2CCc3c(c4ccccc4n3CC(=O)O)C2)cc(OC)c1OC [[2-(3,4,5-trimethoxy-benzoyl)-1,2,3,4-tetrahydro-pyrido[4,3-b]indol-5-yl]-acetic acid] |  | 91 |
| O=C(O)Cn1c2c(c3ccccc31)CN(C(=O)c1cccc3c(Br)cccc13)CC2 [[2-(5-bromo-naphthalene-1-carbonyl)-1,2,3,4-tetrahydro-pyrido[4,3-b]indol-5-yl]-acetic acid] | 12 |  |
| CC(C)(C)OC(=O)N1CCc2c(c3cc(F)ccc3n2CC(=O)O)C1 [5-carboxymethyl-8-fluoro-1,3,4,5-tetrahydro-pyrido[4,3-b]indole-2-carboxylic acid tert-butyl ester] |  | 22 |
| COc1ccc2ccccc2c1C(=O)N1CCc2c(c3cc(Cl)ccc3n2CC(=O)O)C1 [[8-chloro-2-(2-methoxy-naphthalene-1-carbonyl)-1,2,3,4-tetrahydro-pyrido[4,3-b]indol-5-yl]-acetic acid] |  | 3 |
| O=C(O)Cn1c2c(c3cc(Br)ccc31)CN(C(=O)c1cccs1)CC2 [[8-bromo-2-(thiophene-2-carbonyl)-1,2,3,4-tetrahydro-pyrido[4,3-b]indol-5-yl]-acetic acid] | 4 |  |
| O=C(O)Cn1c2c(c3cc(C(F)(F)F)ccc31)CN(C(=O)c1ccccc1)CC2 [(2-benzoyl-8-trifluoromethyl-1,2,3,4-tetrahydro-pyrido[4,3-b]indol-5-yl)-acetic acid] | 1 |  |
| CCc1ccc(-c2ccc(C(=O)N3CCc4c(c5cc(F)ccc5n4CC(=O)O)C3)cc2)cc1 [[2-(4′-ethyl-biphenyl-4-carbonyl)-8-fluoro-1,2,3,4-tetrahydro-pyrido[4,3-b]indol-5-yl]-acetic acid] | 1 |  |
| O=C(O)Cn1c2c(c3cc(F)ccc31)CN(C(=O)Cc1cccc3ccccc13)CC2 [[8-fluoro-2-(2-naphthalen-1-yl-acetyl)-1,2,3,4-tetrahydro-pyrido[4,3-b]indol-5-yl]-acetic acid] | 3 |  |
| Cc1cccc(C(=O)N2CCc3c(c4cc(Br)ccc4n3CC(=O)O)C2)c1Br [[8-bromo-2-(2-bromo-3-methyl-benzoyl)-1,2,3,4-tetrahydro-pyrido[4,3-b]indol-5-yl]-acetic acid] |  | 15 |

Second part, the compound after the results:

| IC50 (hCRTH2 receptor [1]) [nM] | IC50 (hCRTH2 receptor [2]) [nM] | Compound |
| --- | --- | --- |
|  | 88 | O=C(O)Cn1c2c(c3ccccc31)CN(C(=O)c1ccco1)CC2 [[2-(furan-2-carbonyl)-1,2,3,4-tetrahydro-pyrido[4,3-b]indol-5-yl]-acetic acid] |
|  | 83 | O=C(O)Cn1c2c(c3ccccc31)CN(C(=O)c1ccc(Br)cc1)CC2 [[2-(4-bromo-benzoyl)-1,2,3,4-tetrahydro-pyrido[4,3-b]indol-5-yl]-acetic acid] |
|  | 19 | O=C(O)Cn1c2c(c3ccccc31)CN(C(=O)c1cccc3[nH]ccc13)CC2 [[2-(1H-indole-4-carbonyl)-1,2,3,4-tetrahydro-pyrido[4,3-b]indol-5-yl]-acetic acid] |
| 15 | 174 | O=C(O)Cn1c2c(c3ccccc31)CN(C(=O)c1cccc(Cl)c1)CC2 [[2-(3-chloro-benzoyl)-1,2,3,4-tetrahydro-pyrido[4,3-b]indol-5-yl]-acetic acid] |
| 14 |  | Cc1cccc(C(=O)N2CCc3c(c4ccccc4n3CC(=O)O)C2)c1Br [[2-(2-bromo-3-methyl-benzoyl)-1,2,3,4-tetrahydro-pyrido[4,3-b]indol-5-yl]-acetic acid] |

From patent US7714132B2, “Tetrahydropyridoindole derivatives” (Actelion Pharmaceuticals, Ltd., priority 2004, dated 2010)
